Experimental data as given in patent US8431703B2, “Pyrrolopyridine compounds and their use in treating disease” (Novartis AG, priority 2005, dated 2013).

What was measured:
human CRTh2 [1] = target: T1, human CRTh2 (Homo sapiens, UniProt Q9Y5Y4); test: CRTH2 cAMP functional assay in CHO.K1-CRTh2 cells; format: cell-based; design: expressed in transfected cells; host or cells: CHO.K1-CRTh2 cells; details: inhibition of PGD2-mediated attenuation of forskolin-induced cAMP accumulation
T1 sequence (Q9Y5Y4 1-395): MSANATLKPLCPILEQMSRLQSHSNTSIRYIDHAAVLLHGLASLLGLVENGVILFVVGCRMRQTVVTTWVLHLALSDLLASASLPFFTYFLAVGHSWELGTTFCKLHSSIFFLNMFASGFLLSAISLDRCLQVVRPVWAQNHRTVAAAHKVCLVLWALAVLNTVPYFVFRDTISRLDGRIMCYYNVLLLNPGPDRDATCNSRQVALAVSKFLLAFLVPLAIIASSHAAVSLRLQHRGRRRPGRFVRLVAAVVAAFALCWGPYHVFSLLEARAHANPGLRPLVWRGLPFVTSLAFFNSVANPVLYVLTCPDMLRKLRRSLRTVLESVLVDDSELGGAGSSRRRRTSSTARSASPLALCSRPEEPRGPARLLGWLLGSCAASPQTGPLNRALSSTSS
Procedure: This assay is conducted in CHO.K1-CRTh2 cells. cAMP is generated in the cell by stimulating cells with 5 μM forskolin, an adenylate cyclase activator. PGD2 is added to activate the CRTh2 receptor which results in the attenuation of the forskolin-induced cAMP accumulation. Potential CRTh2 antagonists are tested for their ability to inhibit the PGD2-mediated attenuation of the forskolin-induced cAMP accumulation in CHO.K1-CRTh2 cells.
For each concentration value on the dose-response curve, test compounds are prepared in assay stimulation buffer (HBSS, 5 mM HEPES, 10 μM IBMX±0.1% human serum albumin) containing DMSO (3% vol/vol) and 5 μL/well is added to an assay plate (384 well white optiplate).
CHO.K1-CRTh2 cultured in tissue culture flasks are washed with PBS and harvested with dissociation buffer. Cells are washed with PBS and resuspended in stimulation buffer to a concentration of 0.4×10^6/mL and added to the assay plate (10 μL/well).
The assay plate is incubated at room temperature on a shaker for 15 minutes.
A mix of agonist (10 nM Prostaglandin D2) and 5 μM forskolin is prepared in assay stimulation buffer and added to the assay plate (5 μL/well).
In addition, a cAMP standard is serially diluted in assay stimulation buffer and added to separate empty wells on the assay plate (20 μL/well). The cAMP standard allows for the quantification of cAMP generated in CHO.K1-CRTH2 cells.
The assay plate is incubated at room temperature on a shaker for 60 minutes.
Cell lysis buffer (Lysis buffer: Milli-Q H20, 5 mM HEPES, 0.3% Tween-20, 0.1% human serum albumin) is added to a bead mix (containing Alphascreen™ anti-cAMP acceptor beads 0.06 units/IL, Alphascreen™ streptavidin-coated donor beads 0.06 units/μL, biotinylated cAMP 0.06 units/μL, 10 μM IBMX) is prepared under darkened conditions 60 minutes prior to addition to the assay plate. The resulting lysis mix is added to all wells of the assay plate (40 μL/well).
The assay plate is sealed with Topseal-S™ and incubated in the dark at room temperature on a shaker for 45 minutes. The plate is then counted using a Packard Fusion™ instrument.
The resulting counts per minute are converted to nM cAMP by using the prepared cAMP standard curve. IC50 values (concentration of CRTh2 antagonist required to inhibit 50% of the PGD2-mediated attenuation of forskolin-induced cAMP accumulation in CHO.K1-CRTh2 cells) are then determined using Prism™ software.

human CRTh2 [2] = target: T1, human CRTh2; test: CRTh2 [3H]-PGD2 binding assay (filtration binding protocol; called SPA binding assay); design: expressed in transfected cells; host or cells: CHO.K1 (Chinese Hamster Ovary) cells, membrane preparation; details: competition with [3H]-PGD2 2.5 nM, CHO.K1-CRTh2 membranes
Procedure: The binding of CRTh2 modulators is determined using membranes prepared from human CRTh2-expressing Chinese Hamster Ovary cells (CHO.K1-CRTh2). To produce cell membranes CHO.K1-CRTh2 cells cultured in roller bottles are harvested using cell dissociation buffer (Invitrogen). The cells are pelleted by centrifugation (167 g, 5 min). The cell pellet is incubated in hypotonic buffer (15 mM Tris-OH, 2 mM MgCl2, 0.3 mM EDTA, 1 mM EGTA, 1× Complete™ tablet) at 4° C. for 30 min. At 4° C. cells are homogenized using a Polytron® (IKA Ultra Turrax T25) for 5 bursts of 1 second. The homogenate is centrifuged (Beckman Optima™ TL Ultracentrifuge, 48000 g, 30 min at 4° C.). The supernatant is discarded and the membrane pellet resuspended in homogenisation buffer (75 mM Tris-OH, 12.5 mM MgCl2, 0.3 mM EDTA, 1 mM EGTA, 250 mM Sucrose, 1× Complete™ tablet. Membrane preparations are aliquoted and stored at […]. The protein content is estimated using Bradford Protein Assay Dye (Bio Rad).
The binding of [^3H]-PGD2 (157 Ci/mmol) to CHO.K1-CRTh2 membranes is determined in the absence (total binding) and presence (non-specific binding) of unlabelled PGD2 (1 μM). Subtraction of the cpm (counts per minute) of [^3H]-PGD2 binding in presence of excess unlabelled PGD2 from that observed in the absence of excess unlabelled PGD2 is defined as specific binding. Active CRTh2 modulators are able to compete with [^3H]-PGD2 for binding to the CRTh2 receptor and are identified in a decrease in the number of cpm bound.
The assay is performed in Greiner U-bottomed 96 well-plates, in a final volume of 100 μl per well. CHO.K1-CRTh2 membranes were diluted in assay buffer (10 mM HEPES-KOH (pH 7.4), 1 mM EDTA and 10 mM MnCl2) and 10 μg are added to each well. [^3H]-PGD2 is diluted in assay buffer and added to each well at a final concentration of 2.5 nM. To determine non-specific binding, [^3H]-PGD2 binding to the CRTh2 receptor is competed with using unlabelled PGD2 at a final well concentration of 1 μM. The experiment is done in triplicate, with reagents added to the wells as follows: • 25 μL assay buffer for total binding or • 25 μL PGD2 to determine non-specific binding • 25 μL [^3H]PGD2 • 50 μL membranes • 25 μL test compound in DMSO/assay buffer
The plates are incubated at room temperature on a shaker for 1 hour, and then harvested (Tomtec Harvester 9600) onto GF/C filter plates using wash buffer (10 mM HEPES-KOH, pH 7.4). […] Plates are then counted using a Packard Top Count instrument, Plates are then read on the Packard Topcount with the 3H Scintillation program (1 min per well). • Ki (dissocation constant for the inhibition) values for the CRTh2 modulators are reported. Ki values are determined using Sigma Plot™ software, using the Cheng-Prussoff equation. […]

Structure (SMILES)	IC50 (human CRTh2 [1]) [nM]	Ki (human CRTh2 [2]) [nM]
Cc1c(CC(=O)O)c2cccnc2n1Cc1ccc(S(=O)(=O)N2CCCC2)cc1 [Example 2]	83	34
Cc1c(CC(=O)O)c2cccnc2n1Cc1ccc(S(=O)(=O)N(C)C2CCCCC2)cc1 [Example 6, {1-[4-(Cyclohexyl-methyl-sulfamoyl)-benzyl]-2-methyl-1H-pyrrolo[2,3-b]pyridin-3-yl}-acetic acid]	18	2
Cc1c(CC(=O)O)c2cccnc2n1Cc1ccc(S(=O)(=O)N2CCOCC2)cc1 [Example 1, {2-methyl-1-[4-(morpholine-4-sulfonyl)-benzyl]-1H-pyrrolo[2,3-b]pyridine-3-yl}acetic acid]	60	30
Cc1c(CC(=O)O)c2cccnc2n1Cc1ccc(S(=O)(=O)N2CCCCC2)cc1 [Example 4]	42	240
